# Experimental data reported in patent US20260250290A1 (BRISTOL-MYERS SQUIBB COMPANY, priority 2023, published 2026).
# Structures can show the parent of a compound that is named as a salt.
# Molecular target: T1, full length SGK1 (Homo sapiens, UniProt O00141)
# T1 construct: 125 μM full length SGK1 (Life Technologies Part #PR7358A); purchased Life Technologies PR7358A
# T1 sequence (O00141 1-431): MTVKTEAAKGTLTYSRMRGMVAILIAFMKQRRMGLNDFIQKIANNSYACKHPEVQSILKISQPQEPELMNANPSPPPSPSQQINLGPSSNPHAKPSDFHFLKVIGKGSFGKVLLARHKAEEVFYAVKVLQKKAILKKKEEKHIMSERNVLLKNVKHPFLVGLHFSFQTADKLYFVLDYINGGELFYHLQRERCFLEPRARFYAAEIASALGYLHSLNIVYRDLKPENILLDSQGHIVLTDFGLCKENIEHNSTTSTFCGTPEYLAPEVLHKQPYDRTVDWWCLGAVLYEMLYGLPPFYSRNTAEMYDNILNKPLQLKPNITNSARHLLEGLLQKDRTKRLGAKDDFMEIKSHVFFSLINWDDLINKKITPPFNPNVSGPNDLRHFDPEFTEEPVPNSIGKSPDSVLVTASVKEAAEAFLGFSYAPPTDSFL
# Experiment: SGK1 inhibition Assay A (Caliper LabChip electrophoretic separation of fluorescent peptide substrate and phosphorylated product)
# Type: biochemical
# Details: Assay A; 20 μM ATP, 40 min incubation; read-out: SGK1 IC50
row,SMILES,IC50
1,"Nc1ncnn2c(C3=CCN(C(=O)[C@H]4CCOC4)C3)cc(N3CCC[C@@H](NC(=O)c4ccc(Cl)s4)C3)c12 [Example 888, N-((R)-1-(4-amino-7-(1-((S)-tetrahydrofuran-3-carbonyl)-2,5-dihydro-1H-pyrrol-3-yl)pyrrolo[2,1-f][1,2,4]triazin-5-yl)piperidin-3-y1)-5-chlorothiophene-2-carboxamide]",6 nM
2,"Nc1ncnn2c(C3=CCN(C(=O)[C@H]4CCCN4)C3)cc(N3CCC[C@@H](NC(=O)c4ccc(Cl)s4)C3)c12 [Example 889, N-((R)-1-(7-(1-(D-proly1)-2,5-dihydro-1H-pyrrol-3-y1)-4-aminopyrrolo[2,1-f][1,2,4]triazin-5-yl)piperidin-3-y1)-5-chlorothiopbene-2-carboxamide, TFA]",21 nM
3,"Nc1ncnn2c(C3=CCN(C(=O)c4cnco4)C3)cc(N3CCC[C@@H](NC(=O)c4ccc(Cl)s4)C3)c12 [Example 890, (R)-N-(1-(4-amino-7-(1-(oxazole-5-carbony1)-2,5-dihydro-1H-pyrrol-3-y1)pyrrolo[2,1-f][1,2,4]triazin-5-yl)piperidin-3-y1)-5-chlorothiophene-2-carboxamide]",1 nM
4,"Nc1ncnn2c(C3=CCN(C(=O)[C@H]4CCNC4)C3)cc(N3CCC[C@@H](NC(=O)c4ccc(Cl)s4)C3)c12 [Example 891, N-((R)-1-(4-amino-7-(1-((S)-pyrrolidine-3-carbonyl)-2,5-dihydro-1H-pyrrol-3-y1)pyrrolo[2,1-f][1,2,4]triazin-5-y1)piperidin-3-y1)-5-chlorothiophene-2-carboxamide]",25 nM
5,"Nc1ncnn2c(C3=CCN(C(=O)[C@H]4CCCCN4)C3)cc(N3CCC[C@@H](NC(=O)c4ccc(Cl)s4)C3)c12 [Example 892, N-((R)-1-(4-amino-7-(1-((R)-piperidine-2-carbonyl)-2,5-dihydro-1H-pyrrol-3-y1)pyrrolo[2,1-f][1,2,4]triazin-5-yl)piperidin-3-y1)-5-chlorothiophene-2-carboxamide, TFA]",15 nM
6,"Nc1ncnn2c(C3=CCN(C(=O)C4CCCOC4)C3)cc(N3CCC[C@@H](NC(=O)c4ccc(Cl)s4)C3)c12 (stereo partly drawn) [Example 893, N-((3R)-1-(4-amino-7-(1-(tetrahydro-2H-pyran-3-carbony1)-2,5-dihydro-1H-pyrrol-3-yl)pyrrolo[2,1-f][1,2,4]triazin-5-y1)piperidin-3-y1)-5-chlorothiophene-2-carboxamide]",7 nM
7,"Nc1ncnn2c(C3=CCN(C(=O)C4CCNCC4)C3)cc(N3CCC[C@@H](NC(=O)c4ccc(Cl)s4)C3)c12 [Example 894, (R)-N-(1-(4-amino-7-(1-(piperidine-4-carbonyl)-2,5-dihydro-1H-pyrrol-3-yl)pyrrolo[2,1-f][1,2,4]triazin-5-yl)piperidin-3-y1)-5-chlorothiophene-2-carboxamide]",14 nM
8,"Nc1ncnn2c(C3=CCN(C(=O)[C@@H]4CCOC4)C3)cc(N3CCC[C@@H](NC(=O)c4ccc(Cl)s4)C3)c12 [Example 895, N-((R)-1-(4-amino-7-(1-((R)-tetrahydrofuran-3-carbonyl)-2,5-dihydro-1H-pyrrol-3-yl)pyrrolo[2,1-f][1,2,4]triazin-5-yl)piperidin-3-y1)-5~ chlorothiophene-2-carboxamide]",5 nM
9,"Nc1ncnn2c(C3=CCN(C(=O)[C@@H]4CCNC4)C3)cc(N3CCC[C@@H](NC(=O)c4ccc(Cl)s4)C3)c12 [Example 896, N-((R)-1-(4-amino-7-(1-((R)-pyrrolidine-3-carbonyl)-2,5-dihydro-1H-pyrrol-3-yl)pyrrolo[2,1-f][1,2,4]triazin-5-yl)piperidin-3-y1)-5-chlorothiophene-2-carboxamide, TFA]",10 nM
10,"Nc1ncnn2c(C3=CCN(C(=O)C4CCCCO4)C3)cc(N3CCC[C@@H](NC(=O)c4ccc(Cl)s4)C3)c12 (stereo partly drawn) [Example 897, N-((3R)-1-(4-amino-7-(1-(tetrahydro-2H-pyran-2-carbony1)-2,5-dihydro-1H-pyrrol-3-y1)pyrrolo[2,1-f][1,2,4]triazin-5-yl)piperidin-3-y1)-5-chlorothiophene-2-carboxamide]",8 nM
11,"Nc1ncnn2c(C3=CCN(C(=O)C4CCOCC4)C3)cc(N3CCC[C@@H](NC(=O)c4ccc(Cl)s4)C3)c12 [Example 898, (R)-N-(1-(4-amino-7-(1-(tetrahydro-2H-pyran-4-carbony1)-2,5-dihydro-1H-pyrrol-3-yl)pyrrolo[2,1-f][1,2,4]triazin-5-y1)piperidin-3-y1)-5-chlorothiophene-2-carboxamide]",10 nM
12,"Nc1ncnn2c(C3=CCN(C(=O)c4ccno4)C3)cc(N3CCC[C@@H](NC(=O)c4ccc(Cl)s4)C3)c12 [Example 899, (R)-N-(1-(4-amino-7-(1-(isoxazole-5-carbony1)-2,5-dihydro-1H-pyrrol-3-y1)pyrrolo[2,1-f][1,2,4]triazin-5-y1)piperidin-3-y1)-5-chlorothiophene-2-carboxamide]",12 nM
13,"Nc1ncnn2c(C3=CCN(C(=O)c4ccccn4)C3)cc(N3CCC[C@@H](NC(=O)c4ccc(Cl)s4)C3)c12 [Example 900, (R)-N-(1-(4-amino-7-(1-picolinoy1-2,5-dihydro-1H-pyrrol-3-yl)pyrrolo[2,1-f][1,2,4]triazin-5-y1)piperidin-3-y1)-5-chlorothiophene-2-carboxamide]",12 nM
14,"Nc1ncnn2c(C3=CCN(C(=O)[C@@H]4CCCNC4)C3)cc(N3CCC[C@@H](NC(=O)c4ccc(Cl)s4)C3)c12 [Example 901, N-((R)-1-(4-amino-7-(1-((R)-piperidine-3-carbonyl)-2,5-dihydro-1H-pyrrol-3-y1)pyrrolo[2,1-f][1,2,4]triazin-5-y1)piperidin-3-y1)-5-chlorothiophene-2-carboxamide]",29 nM
15,"Nc1ncnn2c(C3=CCN(C(=O)c4ccncc4)C3)cc(N3CCC[C@@H](NC(=O)c4ccc(Cl)s4)C3)c12 [Example 902, (R)-N-(1-(4-amino-7-(1-isonicotinoy1-2,5-dihydro-1H-pyrrol-3-yl)pyrrolo[2,1-f][1,2,4]triazin-5-yl)piperidin-3-y1)-5-chlorothiophene-2-carboxamide]",28 nM
16,"Nc1ncnn2c(C3=CCN(C(=O)[C@@H]4CCCO4)C3)cc(N3CCC[C@@H](NC(=O)c4ccc(Cl)s4)C3)c12 [Example 903, N-((R)-1-(4-amino-7-(1-((S)-tetrahydrofuran-2-carbony1)-2,5-dihydro-1H-pyrrol-3-yl)pyrrolo[2,1-f][1,2,4]triazin-5-yl)piperidin-3-y1)-5-chlorothiophene-2-carboxamide]",8 nM
17,"Nc1ncnn2c(C3=CCN(C(=O)C4CCCS(=O)(=O)C4)C3)cc(N3CCC[C@@H](NC(=O)c4ccc(Cl)s4)C3)c12 (stereo partly drawn) [Example 904, N-((3R)-1-(4-amino-7-(1-(1,1-dioxidotetrahydro-2H-thiopyran-3-carbonyl)-2,5-dihydro-1H-pyrrol-3-yl)pyrrolo[2,1-f][1,2,4]triazin-5-y1)piperidin-3-y1)-5-chlorothiophene-2-carboxamide]",12 nM
18,"Nc1ncnn2c(C3=CCN(C(=O)C4CCS(=O)(=O)C4)C3)cc(N3CCC[C@@H](NC(=O)c4ccc(Cl)s4)C3)c12 (stereo partly drawn) [Example 905, N-((3R)-1-(4-amino-7-(1-(1,1-dioxidotetrahydrothiophene-3-carbonyl)-2,5-dihydro-1H-pyrrol-3-yl)pyrrolo[2,1-f][1,2,4]triazin-5-yl)piperidin-3-y1)-5-chlorothiophene-2-carboxamide]",11 nM
19,"CN(C)CCOc1cc(Cl)sc1C(=O)N[C@@H]1CCCN(c2cc(C3=CCN(C(=O)c4cnco4)C3)n3ncnc(N)c23)C1 [Example 907, (R)-N-(1-(4-amino-7-(1-(oxazole-5-carbonyl)-2,5-dihydro-1H-pyrrol-3-yl)pyrrolo[2,1-f][1,2,4]triazin-5-yI)piperidin~3-y1)-5-chloro-3-(2-(dimethylamino)ethoxy)thiophene-2-carboxamide]",4 nM
20,"CN(C)CCOc1cc(Cl)sc1C(=O)N[C@@H]1CCCN(c2cc(C3=CCN(C(=O)c4ncco4)C3)n3ncnc(N)c23)C1 [Example 908, (R)-N-(1-(4-amino-7-(1-(oxazole-2-carbonyl)-2,5-dihydro-1H-pyrrol-3-yl)pyrrolo[2,1-f][1,2,4]triazin-5-yl)piperidin-3-y1)-5-chloro-3-(2-(dimethylamino)ethoxy)thiophene-2-carboxamide]",3 nM
21,"CN(C)CCOc1cc(Cl)sc1C(=O)N[C@@H]1CCCN(c2cc(C3=CCN(C(=O)C4CCCOC4)C3)n3ncnc(N)c23)C1 (stereo partly drawn) [Example 909, N-((3R)-1-(4-amino-7-(1-(tetrahydro-2H-pyran-3-carbonyl)-2,5-dihydro-1H-pyrrol-3~yl)pyrrolo[2,1-f][1,2,4]triazin-5-y1)piperidin-3-y1)-5-chloro-3-(2-(dimethylamino)ethoxy)thiophene-2-carboxamide]",14 nM
22,"CC(=O)N1CC=C(c2cc(OCCN(C)C)c(C(=O)N[C@@H]3CCCN(c4cc(C5=CCN(C(C)=O)C5)n5ncnc(N)c45)C3)s2)C1 [Example 910, (R)-5-(1-acetyl-2,5-dihydro-1H-pyrrol-3-yl)-N-(1-(7-(1-acetyl-2,5-dihydro-1H-pyrrol-3-yl)-4-aminopyrrolo[2,1-f][1,2,4]triazin-5-yl)piperidin-3-yl)-3-(2-(dimethylamino)ethoxy)thiophene-2-carboxamide]",59 nM
23,"COC(=O)CN1CC=C(c2cc(N3CCC[C@@H](NC(=O)c4ccc(Cl)s4)C3)c3c(N)ncnn23)C1 [Example 911, methyl (R)-2-(3-(4-amino-5-(3-(5-chlorothiophene-2-carboxamido)piperidin-1-yl)pyrrolo[2,1-f][1,2,4]triazin-7-yl)-2,5-dihydro-1H-pyrrol-1-yl)acetate]",70 nM
